# Patent US11691949B2, “Quinoline sulfonamide compounds and their use as antibacterial agents” (OTAGO INNOVATION LIMITED, priority 2017, dated 2023)
# Counter-ions that a name gives are not always drawn. Like-named read-outs stand apart in the source and are kept apart here.
# Legend:
# Type in all cases: cell-based
# [1] = test system: S. uberis ATCC 19436; test: MIC by broth microdilution, S. uberis; settings: Streptococcus uberis
# Protocol: (§1) Antibacterial susceptibility testing was performed in triplicate (biological) by measuring minimum inhibitory concentrations (MICs) by broth microdilution in 96-well flat bottom microtiter plates (ThermoFisher Scientific, New Zealand). S. uberis ATCC 19436, S. aureus ATCC 6538, or E. coli ATCC 10596 cells grown overnight were diluted to an OD600 of approximately 0.025, so that the final concentration of cells in the MIC assay was approximately 5×10^5 cfu/mL in media as follows: S. uberis; Todd Hewitt Broth (THB), S. aureus; Tryptic Soy Broth (TSB) and Cation Adjusted Muller Hinton Broth (CAMHB), and E. coli; Lysogeny Borth (LB) and CAMHB, before being dispensed into microtiter wells. As required additional sterile Zinc Sulphate (Heptahydrate) was supplemented into the media, so the final concentration was 50 μM. Test compounds were added to starting wells and two-fold serial dilutions were undertaken to generate a range of inhibitor concentrations at a final volume of 200 μl. Media and test compound-free (untreated) controls were included in each microtiter plate in triplicate. After 24 h incubation at 37° C. and 200 rpm, the OD600 of wells were read using a Varioskan Flash plate reader (ThermoFisher Scientific, New Zealand). The MIC was reported as the lowest concentration of the test compound for which no growth occurred, as determined by OD600 readings. The minimum bactericidal concentration (MBC) was determined using the Miles-Misra drop-plate method to measure the viability of cells in response to test compound challenge.
# [2] = test system: S. aureus ATCC 6538; test: MIC by broth microdilution, S. aureus; settings: Staphylococcus aureus
# Protocol: as §1
# [3] = test system: E. coli ATCC 10596; test: MIC by broth microdilution, E. coli; settings: Escherichia coli
# Protocol: as §1
# [4] = ATCC19436, read-out: S. uberis ATCC 19436 MIC, No Zinc
# [5] = ATCC19436, read-out: S. uberis ATCC 19436 MIC, Zinc (50 μM)
# [6] = ATCC6538, read-out: S. aureus ATCC 6538 MIC, No Zinc
# [7] = ATCC6538, read-out: S. aureus ATCC 6538 MIC, Zinc (50 μM)
# [8] = ATCC 10536 / ATCC 10596, read-out: E. coli ATCC 10536 MIC, No Zinc
# [9] = ATCC 10536 / ATCC 10596, read-out: E. coli ATCC 10536 MIC, Zinc (50 μM)
# [10] = ATCC19436, No Zinc, read-out: S. uberis ATCC 19436 MIC
# [11] = ATCC19436, Zinc (50 μM), read-out: S. uberis ATCC 19436 MIC
# [12] = ATCC6538, No Zinc, read-out: S. aureus ATCC 6538 MIC
# [13] = ATCC6538, Zinc (50 μM), read-out: S. aureus ATCC 6538 MIC
# [14] = ATCC 10536 / ATCC 10596, No Zinc, read-out: E. coli ATCC 10536 MIC
# [15] = ATCC 10536 / ATCC 10596, Zinc (50 μM), read-out: E. coli ATCC 10536 MIC
Structure (SMILES),"MIC [1, 10] [µg/mL]","MIC [1, 11] [µg/mL]","MIC [2, 12] [µg/mL]","MIC [2, 13] [µg/mL]","MIC [3, 14] [µg/mL]","MIC [3, 15] [µg/mL]","MIC [1, 4] [µg/mL]","MIC [1, 5] [µg/mL]","MIC [2, 6] [µg/mL]","MIC [2, 7] [µg/mL]","MIC [3, 8] [µg/mL]","MIC [3, 9] [µg/mL]"
"O=C(CNCc1ccc2cccc(NS(=O)(=O)c3ccc(C(F)(F)F)cc3)c2n1)NCCCN1CCCCC1 [ZDR262, N-(3-(Piperidin-1-yl)propyl)-2-(((8-((4-(trifluoromethyl)phenyl)sulfonamido)quinolin-2-yl)methyl)amino)acetamide di-trifluoroacetate]",,,,,,,8,16,64,128,32,64
"CN(C)Cc1ccc2cccc(NS(=O)(=O)c3cccc(S(C)(=O)=O)c3)c2n1 [ZDR310, N-(2-((Dimethylamino)methyl)quinolin-8-yl)-3-(methylsulfonyl)benzenesulfonamide]",256,4,> 256,> 256,> 256,> 256,,,,,,
"CN(C)Cc1ccc2cccc(NS(=O)(=O)C3CCNCC3)c2n1 [ZDR263, N-(2-((Dimethylamino)methyl)quinolin-8-yl)piperidine-4-sulfonamide di-trifluoroacetate]",,,,,,,> 256,256,> 256,> 256,> 256,> 256
"CN(C)Cc1ccc2cccc(NS(=O)(=O)N3CCOCC3)c2n1 [ZDR192, N-(2-((Dimethylamino)methyl)quinolin-8-yl)morpholine-4-sulfonamide]",> 256,1,> 256,> 256,> 256,> 256,,,,,,
"CC(C)(C)OC(=O)N=C(NCCNCc1ccc2cccc(NS(=O)(=O)c3ccc(C(F)(F)F)cc3)c2n1)NC(=O)OC(C)(C)C [ZDR139, N-(2-(((N,N′-Bis-Boc-2-Guanidinoethyl)amino)methyl)quinolin-8-yl)-4-(trifluoromethyl)benzenesulfonamide]",64,0.125,256,256,> 256,> 256,,,,,,
"O=C(CNCc1ccc2cccc(NS(=O)(=O)c3ccc(C(F)(F)F)cc3)c2n1)NC(CO)(CO)CO [ZDR265, N-(1,3-Dihydroxy-2-(hydroxymethyl)propan-2-yl)-2-(((8-((4-(trifluoromethyl)phenyl)sulfonamido)quinolin-2-yl)methyl)amino)acetamide trifluoroacetate]",,,,,,,128,256,64,64,256,256
"O=C(O)CNCc1ccc2cccc(NS(=O)(=O)c3ccc(C(F)(F)F)cc3)c2n1 [ZDR043, N-(2-(((Carboxymethyl)amino)methyl)quinolin-8-yl)-4-(trifluoromethyl)benzenesulfonamide trifluoroacetate]",,,,,,,> 256,> 256,> 256,> 256,> 256,> 256
"CNC(=O)CNCc1ccc2cccc(NS(=O)(=O)c3ccc(C(F)(F)F)cc3)c2n1 [ZDR270, N-Methyl-2-(((8-((4-(trifluoromethyl)phenyl)sulfonamido)quinolin-2-yl)methyl)amino)acetamide trifluoroacetate]",,,,,,,16,4,32,32,128,256
"CN(C)CCNC(=O)CNCc1ccc2cccc(NS(=O)(=O)c3ccc(C(F)(F)F)cc3)c2n1 [ZDR268, N-(2-(Dimethylamino)ethyl)-2-(((8-((4-(trifluoromethyl)phenyl)sulfonamido)quinolin-2-yl)methyl)amino)acetamide di-trifluoroacetate]",,,,,,,32,16,64,128,64,64
"COC(=O)c1cccc(S(=O)(=O)Nc2cccc3ccc(CN(C)C)nc23)c1 [ZDR308, Methyl 3-(N-(2-((dimethylamino)methyl)quinolin-8-yl)sulfamoyl)benzoate]",256,0.25,256,> 256,256,> 256,,,,,,

# Continued, in another order:
"MIC [1, 10] [µg/mL]","MIC [1, 11] [µg/mL]","MIC [2, 12] [µg/mL]","MIC [2, 13] [µg/mL]","MIC [3, 14] [µg/mL]","MIC [3, 15] [µg/mL]",Structure (SMILES),"MIC [1, 4] [µg/mL]","MIC [1, 5] [µg/mL]","MIC [2, 6] [µg/mL]","MIC [2, 7] [µg/mL]","MIC [3, 8] [µg/mL]","MIC [3, 9] [µg/mL]"
> 256,16,> 256,> 256,> 256,> 256,"CN(C)Cc1ccc2cccc(NS(=O)(=O)c3ccc(S(N)(=O)=O)cc3)c2n1 [ZDR154, N-(2-((Dimethylamino)methyl)quinolin-8-yl)benzene-1,4-disulfonamide]",,,,,,
64,0.25,64,256,> 256,256,"COCCNCc1ccc2cccc(NS(=O)(=O)c3ccc(C(F)(F)F)cc3)c2n1 [ZDR133, N-(2-(((2-Methoxyethyl)amino)methyl)quinolin-8-yl)-4-(trifluoromethyl)benzenesulfonamide]",,,,,,
256,0.0625,> 256,128,> 256,> 256,"CN(C)Cc1ccc2cccc(NS(=O)(=O)Cc3ccc(C(F)(F)F)cc3)c2n1 [ZDR320, N-(2-((Dimethylamino)methyl)quinolin-8-yl)-1-(4-(trifluoromethyl)phenyl)methanesulfonamide]",,,,,,
256,0.125,128,64,> 256,> 256,"CN(C)CC(=O)NCc1ccc2cccc(NS(=O)(=O)c3ccc(C(F)(F)F)cc3)c2n1 [ZDR205, 2-(Dimethylamino)-N-((8-((4-(trifluoromethyl)phenyl)sulfonamido)quinolin-2-yl)methyl)acetamide]",,,,,,
256,0.125,256,> 256,> 256,> 256,"CN(C)Cc1ccc2cccc(NS(=O)(=O)c3ccccc3Br)c2n1 [ZDR202, 2-Bromo-N-(2-((dimethylamino)methyl)quinolin-8-yl)benzenesulfonamide]",,,,,,
128,0.25,32,256,> 256,> 256,"O=S(=O)(Nc1cccc2ccc(CNCC(F)F)nc12)c1ccc(C(F)(F)F)cc1 [ZDR100, N-(2-(((2,2-Difluoroethyl)amino)methyl)quinolin-8-yl)-4-(trifluoromethyl)benzenesulfonamide]",,,,,,
64,1,32,32,256,256,"O=S(=O)(Nc1cccc2ccc(CNCCOCCO)nc12)c1ccc(C(F)(F)F)cc1 [ZDR129, N-(2-(((2-(2-Hydroxyethoxy)ethyl)amino)methyl)quinolin-8-yl)-4-(trifluoromethyl)benzenesulfonamide]",,,,,,
64,0.0625,64,128,> 256,> 256,"CN(C)Cc1ccc2cccc(NS(=O)(=O)c3cccc(Cl)c3Cl)c2n1 [ZDR336, 2,3-Dichloro-N-(2-((dimethylamino)methyl)quinolin-8-yl)benzenesulfonamide]",,,,,,
> 256,0.5,> 256,256,> 256,64,"CN(C)Cc1ccc2cccc(NS(=O)(=O)C(F)(F)F)c2n1 [ZDR079, N-(2-((Dimethylamino)methyl)quinolin-8-yl)-1,1,1-trifluoromethanesulfonamide]",,,,,,
16,0.125,32,128,64,256,"O=S(=O)(Nc1cccc2ccc(CNCC3CCCCC3)nc12)c1ccc(C(F)(F)F)cc1 [ZDR406, N-(2-(((Cyclohexylmethyl)amino)methyl)quinolin-8-yl)-4-(trifluoromethyl)benzenesulfonamide]",,,,,,
> 256,1,> 256,> 256,> 256,> 256,"CN(C)Cc1ccc2cccc(NS(=O)(=O)c3ccc(C#N)cc3)c2n1 [ZDR068, 4-Cyano-N-(2-((dimethylamino)methyl)quinolin-8-yl)benzenesulfonamide]",,,,,,
